Kd, IC50 and Ki data for two molecules are collected here from ChEMBL document CHEMBL4665853, “Inhibition of Macrophage Migration Inhibitory Factor by a Chimera of Two Allosteric Binders” (ACS Med Chem Lett, 2020).

Experiment [1] deals with T1, Macrophage migration inhibitory factor (Homo sapiens, UniProt P14174).
T1 sequence (P14174 whole entry): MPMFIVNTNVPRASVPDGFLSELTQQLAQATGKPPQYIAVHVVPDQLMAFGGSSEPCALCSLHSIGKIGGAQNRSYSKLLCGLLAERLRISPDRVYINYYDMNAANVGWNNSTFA
Kind of experiment: Binding affinity to recombinant biotinylated human MIF expressed in Escherichia coli BL21 DE3 by surface plasmon resonance assay.

Experiment [2] addresses T1, Macrophage migration inhibitory factor. Kind of experiment: Inhibition of recombinant biotinylated human MIF tautomerase activity expressed in Escherichia coli BL21 DE3 assessed as reduction in tautomerization of keto-p-hydroxyphenylpyruvate using keto-p-hydroxyphenylpyrivate as substrate preincubated for 30 mins followed by substrate addition by HTS assay.
The target is the same in experiment [3]. Kind of experiment: Inhibition of recombinant human MIF expressed in Escherichia coli BL21 DE3 binding to recombinant soluble human CD74 receptor ectodomain (73 to 232 residues) expressed in Escherichia coli BL21 (DE3) pLysS using p-nitrophenyl phosphate as substrate by ELISA. For orientation: In an ELISA, binding on a coated surface is turned into a signal by an enzyme label.

Experiment [4] has the same target. Nature of the experiment: Inhibition of MIF-induced IL-8 secretion in human foreskin fibroblasts incubated for 30 mins by ELISA.
Experiment [5] has the same target. Nature of the experiment: Non-competitive inhibition of recombinant human MIF assessed as inhibition constant using varying levels of p-hydroxyphenylpyruvate as substrate by Lineweaver-Burk plot analysis.

pIC50, pKd, pKi: −log10 of the molar value.

As usually defined, the pKd is the negative decadic logarithm of the Kd, by convention in mol/L. What is called pIC50 is −log10 of the IC50, conventionally taken in molar units. As for `CC(C)C(=O)c1c(Cc2cccc(/N=N/c3ccc4c(S(=O)(=O)O)cc(S(=O)(=O)O)c(N)c4c3O)c2)nn2ccccc12`, the pKd in experiment [1] is 5.16. The pIC50 in experiment [2] was 5.12; in experiment [3], 6.03; in experiment [4], 5.35.

The pKi is the Ki on a negative log10 scale, so that one unit is a factor of ten. Take `CC(C)C(=O)c1c(C(C)C)nn2ccccc12` [IBUDILAST]: in experiment [5], the pKi is 4.51. The pKd in experiment [1] is 5.85.
